Consider eleven compounds from paper PMC9778984, “5′-Chalcogen-Substituted Nucleoside Pyrophosphate and Phosphate Monoester Analogues: Preparation and Hydrolysis Studies” (International Journal of Molecular Sciences, 2022).

In general, pKa refers to the pH at which an ionisable group is half protonated.

Each structure is given as a SMILES string.

Data set [1] can be described thus: pKa of the phosphoryl moieties by 31P NMR titration. The following applies: from Pβ resonance shift on acidification of aqueous solution; represents a maximum pKa value. Type of data set: physicochemical. The method, then: (§1) In order to further assess the potential for chalcogen-substituted pyrophosphate linkages to enable targeted drug delivery, the pKa values of the phosphoryl moieties were assessed using ^31P NMR titration. […] Similar values were determined for dTChppA (3.2 for 2a; 3.4 for 2b) although maximal shifts of 0.2 ppm were observed and a second inflection at ca. pH 8.5 may indicate that the shifts reflect nucleobase ionisation as significant intramolecular base stacking occurs in AppA and other dinucleoside pyrophosphates. However, the titrations’ inflections represent a maximum pKa value and therefore indicate that these moieties will be fully charged at physiological pH. We therefore briefly compared the cleavage of these pyrophosphates using snake venom monitoring the reactions of NADH, dTSppA (2a) and dTSeppA (2b) by ^31P NMR. Over 95% consumption of the native pyrophosphate substrate was observed consumed within one hour. In contrast, ca. 25% and 20% of the sulfur- and selenium-substituted analogues were cleaved during this timeframe. […] In contrast, digestion of dTSeppA plateaued at ca. 45% which may result from denaturation of the protein following release of 5′-dTSeMP and subsequent spontaneous hydrolysis to the corresponding selenol and its subsequent interaction with the active site zinc dyad and disulfide linkages.

Data set [2] can be described thus: Hydrolysis of dinucleoside pyrophosphates at 90 °C, analysed by CZE and RP-HPLC. Format: physicochemical. The following applies: for half-life of the total disappearance: neutral conditions; for rate constant for the decomposition of the deadenylation (depurination) product / rate constant for the formation of the deadenylation (depurination) product: kinetics of parallel and consecutive reactions. The method, then:
Reactions of pyrophosphates dASppA (1a) and 3′,5′-dTSppA (3) were studied at 90 °C. Samples taken from reaction solutions were analysed by two methods: capillary zone electrophores (CZE) and reversed-phase HPLC (RP-HPLC), for detection of polar and neutral reaction components, respectively. […] In general, the reactivity of 1a and 3 is low; the half-lives under neutral conditions are measured in tens of days even at 90 °C. The rate of the total disappearance of thiopyrophosphates 1a and 3 is practically pH-independent between pH 6 to 9. The reactivity increases at a lower pH; under alkaline conditions, the rate-enhancement is more modest.
Kinetic experiments with dinucleoside pyrophosphates 1a,b and 3 have been carried out using methods that have been reported previously, and are only briefly described below. Other experimental methods are described in detail in the Supplementary Materials (Figures S1 and S2, Tables S1 and S2).
Capillary zone electrophoretic (CZE) analysis was carried on an HP ^3DCE or on a Beckman Coulter P/ACE MDQA equipment. A fused silica capillary (57 cm effective length, 75 μm i.d.) was used. The background electrolyte was a 25 mM potassium phosphate buffer (pH 7.2). A voltage of 25–30 kV was applied and the compounds were detected at […] (HP) or 254 nm (Beckman).
RP-HPLC analysis was carried on an Agilent 1100 HPLC equipped with a DAD-detector. A Supelcosil LC-18 column (25 × 0.4 cm, particle size 5 μm) was used to separate reaction components. Eluents were mixtures of acetonitrile (MeCN) (Honeywell, Germany) and acetate buffer (0.05 M, pH 4.3) containing 0.1 M ammonium chloride (Sigma-Aldrich, Seelze, Germany). The gradient program used in routine analysis was as follows: 0–10 min isocratic 5% MeCN, 10–20 min a linear gradient to 33% MeCN, 20–30 min isocratic 33% MeCN, 30–35% a linear gradient to 5% MeCN. Flow rate was 1 mL/ min. UV-active compounds were detected at 260 nm.
Rate constants were calculated by applying the integrated first-order rate law to the disappearance of the starting material. Rate constants for the formation and decompositions of products were calculated by applying the rate law of parallel and consecutive reactions. In the case of 2, the concentration of the starting material and products were determined using calibration curves based on authentic samples. Diphenyl phosphate was used as an internal standard in reactions.

The test system of data set [3] is snake venom (SVPDE). The experiment in a line: Snake venom (SVPDE) digestion monitored by 31P NMR. Type of data set: biochemical. To be noted: for mM consumed (31P NMR): 10 mM substrate, 37 °C, pH 7.5; for substrate consumed (digestion): over the subsequent 14 h; for substrate consumed (cleaved): within one hour. On the procedure:
as §1
To a solution of 10 mM substrate (NADH/dTSppA (2a)/dTSeppA (2b)) in aqueous buffer (TrisꞏHCl (50 mM, pH 7.5), NaCl (50 mM), 1mM MgCl2ꞏ(H2O)6) was added a solution of snake venom 0.2 mg/µL (10 µL). The reaction mixtures were incubated at 37°C for 30 minutes. Digestion was monitored by 31P NMR. dX(Ch)ppA SV P D digestion […]
mM NADH mM dTSppA mM dTSeppA time/h consumed time/h consumed time/h consumed

Data set [4] can be described thus: Hydrolysis of nucleotides (phosphorus-chalcogen bond cleavage of monoesters) in aqueous buffer, monitored by 31P NMR. Type of data set: physicochemical. The following applies: for ΔH^‡ of phosphorus-chalcogen bond cleavage / ΔS^‡ of phosphorus-chalcogen bond cleavage: neutral pH, Eyring parameters from variable temperature NMR. The method, then:
Novel sulfur and selenium substituted 5′,5′-linked dinucleoside pyrophate analogues were prepared in a vibration ball mill from the corresponding persilylated monophosphate. The chemical hydrolysis of pyrophosphorochalcogenolate-linked dimers was studied over a wide pH-range. […] The chemical stability of the precursor phosphorochalcogenolate monoesters was also investigated. […] The rate of dephosphorylation was dependent upon both the nature of the chalcogen and the pH. The integrity of the P-S bond in the corresponding phosphorothiolate was maintained at high pH but rapidly degraded at pH 3. In contrast, P-Se bond cleavage of the phosphoroselenolate monoester was rapid and the rate increased with alkalinity. The results obtained in kinetic experiments provide insight on the reactivity of the novel pyrophosphates studied as well as of other types of thiosubstituted biological phosphates.
Evidence for a dissociative transition state can be seen in the Eyring parameters derived from variable temperature NMR analysis of the phosphorus-chalcogen bond cleavage kinetics at 29 8K, 308 K and 318 K under neutral pH conditions. Thus, positive ΔS^‡ values of 79 and 35 J mol^−1 K^−1 were determined for 5′-dTSMP (4a) and 5′-dTSeMP (4b), respectively.

Experiment in data set [5]: as above
Type of data set: physicochemical.

With `Nc1ncnc2c1ncn2[C@@H]1O[C@H](COP(=O)(O)OP(=O)(O)SC[C@H]2O[C@@H](n3cnc4c(N)ncnc43)[C@H](O)[C@@H]2O)[C@@H](O)[C@H]1O` [1a, 5′-Thioadenosine 5′-Pyrophosphate (P′→5′) adenosine], in data set [1], the pKa was found to be 3. In addition, the “half-life of the total disappearance” value in data set [2] (90 °C) is recorded as “tens of days”. The “rate constant of the total disappearance” value in data set [2] (pH 2, 90 °C) was 9.3e-05 s⁻¹. Besides, in data set [2] (pH 2, 90 °C, same conditions, Ap2A value from ref 33), the “phosphate hydrolysis rate constant relative to that reported for Ap2A (1c)” value is “six times larger”. Moreover, the “rate constant of phosphate hydrolysis” value in data set [2] (pH 2, 90 °C, total disappearance divided, assuming the two deadenylation routes are equally fast) worked out at 5.5e-05 s⁻¹.

Take `Nc1ncnc2c1ncn2[C@@H]1O[C@H](COP(=O)(O)OP(=O)(O)[Se]C[C@H]2O[C@@H](n3cnc4c(N)ncnc43)[C@H](O)[C@@H]2O)[C@@H](O)[C@H]1O` [1b, 5′-deoxy-5′-selenoadenosine 5′-pyrophosphate (P′ →5′) adenosine]: the pKa in data set [1] is 3.3. Besides, in data set [2] (pH 2, 90 °C), the “rate constant of the total disappearance” value is reported as “(1.55 ± 0.04) × 10^−4 s^−1”. Moreover, the “rate constants from the initial linear plot relative to those obtained for 1a” value in data set [2] (pH above acidic, where the reaction is not first-order, 90 °C, difference largest under neutral conditions) lay in the range of 5 to 20 times.

For the compound `Cc1cn([C@H]2C[C@H](O)[C@@H](CSP(=O)(O)OP(=O)(O)OC[C@H]3O[C@@H](n4cnc5c(N)ncnc54)[C@H](O)[C@@H]3O)O2)c(=O)[nH]c1=O` [2a, 5'-thiothymidine 5'-pyrophosphate (P' →5') adenosine], in data set [1], the pKa came out at 3.2. Moreover, the “mM consumed (31P NMR)” value in data set [3] (time 1 h) was found to be 2.57 mM; in data set [3] (time 2 h) it was 4.17 mM; in data set [3] (time 4 h) it was 7.12 mM; in data set [3] (time 15 h) it was 10 mM. The “substrate consumed (digestion)” value in data set [3] is “complete consumption”. The “substrate consumed (cleaved)” value in data set [3] is “ca. 25%”.

Take `Cc1cn([C@H]2C[C@H](O)[C@@H](CSP(=O)(O)O)O2)c(=O)[nH]c1=O` [4a]: in data set [4] (acidic conditions, 25 °C), the time for hydrolysis entry is “within hours”. For the same compound, the “ΔH^‡ of phosphorus-chalcogen bond cleavage” value in data set [4] came out at 30.23 kcal/mol. For the same compound, in data set [4], the “ΔS^‡ of phosphorus-chalcogen bond cleavage” value turned out to be 79 J mol^−1 K^−1. Further, the “k (rate constant for the hydrolysis)” value in data set [4] (pH 3, 298 K) is 152 10^−6 s^−1; in data set [4] (pH 7, 298 K), 5.19 10^−6 s^−1; in data set [4] (pH 7, 308 K), 17.1 10^−6 s^−1; in data set [4] (pH 7, 318 K) it was 58.4 10^−6 s^−1; in data set [4] (pH 11, 298 K), 0.34 10^−6 s^−1. Moreover, the “reactivity difference between 5′-dTSMP (4a) and 5′-TMP (4c)” value in data set [4] (pH 3, estimated on the basis of Table 1) is recorded as “approximately 700,000 fold”.

Take `Cc1cn([C@H]2C[C@H](O)[C@@H](C[Se]P(=O)(O)O)O2)c(=O)[nH]c1=O` [4b]: the “ΔH^‡ of phosphorus-chalcogen bond cleavage” value in data set [4] amounted to 26.43 kcal/mol. Besides, the “ΔS^‡ of phosphorus-chalcogen bond cleavage” value in data set [4] is listed as 35 J mol^−1 K^−1. Moreover, the “k (rate constant for the hydrolysis)” value was 53.1 10^−6 s^−1 in data set [4] (pH 3, 298 K); 16.8 10^−6 s^−1 in data set [4] (pH 7, 298 K); 14.4 10^−6 s^−1 in data set [4] (pH 11, 298 K); 75.1 10^−6 s^−1 in data set [5] (pH 7, 303 K); 297 10^−6 s^−1 in data set [5] (pH 7, 313 K).

With `Cc1cn([C@H]2C[C@H](O)[C@@H](C[Se]P(=O)(O)OP(=O)(O)OC[C@H]3O[C@@H](n4cnc5c(N)ncnc54)[C@H](O)[C@@H]3O)O2)c(=O)[nH]c1=O` [2b, 5′-deoxy-5′-selenothymidine 5′-pyrophosphate (P′ →5′) adenosine], in data set [1], the pKa was found to be 3.4. Besides, the “mM consumed (31P NMR)” value in data set [3] (time 1 h) is 2.13 mM; in data set [3] (time 2 h), 3.19 mM; in data set [3] (time 3 h) it was 3.98 mM; in data set [3] (time 5 h) it was 4.41 mM; in data set [3] (time 7 h), 4.45 mM; in data set [3] (time 9 h) it was 4.48 mM. Moreover, in data set [3] (time 15 h), the “mM consumed (31P NMR)” value came to 4.61 mM. Moreover, the “substrate consumed (digestion)” value in data set [3] is reported as “ca. 45%”. Also, the “substrate consumed (cleaved)” value in data set [3] was around 20%.

For `NC(=O)C1=CN([C@@H]2O[C@H](COP(=O)(O)OP(=O)(O)OC[C@H]3O[C@@H](n4cnc5c(N)ncnc54)[C@H](O)[C@@H]3O)[C@@H](O)[C@H]2O)C=CC1` [NADH, reference compound], the “mM consumed (31P NMR)” value in data set [3] (time 1 h) was found to be 9.62 mM; in data set [3] (time 2 h), 10 mM. In addition, the “substrate consumed (cleaved)” value in data set [3] is given as “Over 95%”.

Regarding `Cc1cn([C@H]2C[C@H](O)[C@@H](COP(=O)(O)O)O2)c(=O)[nH]c1=O` [4c, 5′-TMP, reference compound], in data set [4] (pH 3, 363 K), the “k (rate constant for the hydrolysis)” value is 2.60 10^−6 s^−1.

Turning to `Nc1ncnc2c1ncn2[C@@H]1O[C@H](CS[P@](=O)(O)O[P@](=O)(O)OC[C@@H](O)[C@@H](O)[C@@H](O)C=O)[C@@H](O)[C@H]1O` [compound 13], in data set [2] (pH 2, 90 °C), the “rate constant for the decomposition of the deadenylation (depurination) product” value amounted to 3.1e-05 s⁻¹ and the “rate constant for the formation of the deadenylation (depurination) product” value was found to be 1.9e-05 s⁻¹.

For the compound `Cc1cn([C@H]2C[C@H](S[P@](=O)(O)O[P@](=O)(O)OC[C@H]3O[C@@H](n4cnc5c(N)ncnc54)[C@H](O)[C@@H]3O)[C@@H](CO)O2)c(=O)[nH]c1=O` [compound 3], in data set [2] (90 °C), the “half-life of the total disappearance” value is on record as “tens of days”. Also, in data set [2] (neutral pH, 90 °C, non-linear regression on thymine formation, rather approximate), the “rate constant for dethyminylation” value was “(2.2 ± 0.2) × 10^−7 s^−1”.

`Cc1cn([C@H]2C[C@H](S[P@](=O)(O)O[P@](=O)(O)OC[C@@H](O)[C@@H](O)[C@@H](O)C=O)[C@@H](CO)O2)c(=O)[nH]c1=O` [compound 18]: in data set [2] (pH 2, 90 °C), the “rate constant for the decomposition of the deadenylation (depurination) product” value was found to be 2e-05 s⁻¹ and the “rate constant for the formation of the deadenylation (depurination) product” value worked out at 2.3e-05 s⁻¹.
